Data published in BindingDB's records for doi:10.7270/Q2SN07C4 (Vanderbilt Screening Center for GPCRs, Ion Channels and …, 2009).
pEC50: −log10 of the molar value.

Biological target: T1, Muscarinic acetylcholine receptor M4 (Rattus norvegicus, UniProt P08485)
T1 sequence (P08485 whole entry): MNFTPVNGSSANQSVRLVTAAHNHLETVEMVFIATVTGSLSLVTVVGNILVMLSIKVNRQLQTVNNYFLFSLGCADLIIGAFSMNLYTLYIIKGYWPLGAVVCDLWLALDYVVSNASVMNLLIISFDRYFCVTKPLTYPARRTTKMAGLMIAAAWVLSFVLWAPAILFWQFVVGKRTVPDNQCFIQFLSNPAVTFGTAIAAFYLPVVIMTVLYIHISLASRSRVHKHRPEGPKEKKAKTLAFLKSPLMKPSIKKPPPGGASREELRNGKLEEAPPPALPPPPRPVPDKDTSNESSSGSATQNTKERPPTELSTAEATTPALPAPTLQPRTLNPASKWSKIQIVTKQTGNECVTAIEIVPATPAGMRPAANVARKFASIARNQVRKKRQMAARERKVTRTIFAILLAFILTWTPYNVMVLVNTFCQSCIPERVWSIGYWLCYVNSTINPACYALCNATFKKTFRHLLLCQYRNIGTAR
Assay: rat M4 radioligand competition binding – biochemical, NMS competition, mechanism study for M4 PAM project, late-stage follow-up (AID 1939)

`Cc1cc(C)c2c(N)c(C(=O)NCc3ccc4c(c3)OCO4)sc2n1` [3-amino-4,6-dimethyl-N-piperonyl-thieno[2,3-b]pyridine-2-carboxamide] showed a pEC50 greater than 5.85.
